How the values were obtained:
male Sprague-Dawley rats [1] = experiment: Carrageenan model of inflammatory pain, radiant heat paw withdrawal, compound given 2.5 hr after carrageenan (Example 2); assay type: in vivo, rat; settings: 30 min after compound, seconds±SEM
Experimental: (§1) To assess the ability of test compounds to reverse thermal hyperalgesia, baseline response latencies on a radiant heat (RH) paw stimulator were obtained before an intraplantar injection of carrageenan-λ (200 μL) in male Sprague-Dawley rats (250-350 g in treatment groups of 9 animals each). Only withdrawal responses that were quick hind paw movements (with or without licking of the hind paw) were recorded. Paw movements associated with locomotion or a shifting of weight were not considered a withdrawal response.
(§2) The weight of each animal was recorded on the day of the experiment. Each animal was placed on a warm (approx. body temperature, 30° C.) glass surface and allowed to acclimate to the test chamber for approximately 10-15 minutes. A radiant thermal stimulus (beam of light) was then focused on the sole of each hind paw in turn, and an initial (baseline) response time to thermal stimuli was recorded for each animal. The stimulus intensity (radiant heat at a setting of 5 Amps) that produced 10-15 sec baseline withdrawal latencies was used and a maximum cutoff of 20 sec was imposed. The light stimulus was automatically shut off by a photoelectric relay when the foot moved or when the cut-off time limit was reached.
The experiment of Example 1 is repeated with the exception that animals are first administered 1% carrageenan (200 μL in sterile saline) subcutaneously into the sub-plantar tissue of the left hind paw to stimulate an acute inflammatory reaction.
Two and a half hours later, withdrawal latencies are assessed (‘post-Cg’). One treatment group is then injected i.p. with vehicle (5% DMSO and 5% Tween-80 in sterile saline). The other treatment groups are injected i.p. with 3, 10 or 30 mg/kg of Compound 2. Thirty minutes after test compound administration withdrawal latencies are recorded.

male Sprague-Dawley rats [2] = experiment: Carrageenan model of inflammatory pain, radiant heat paw withdrawal, compound given before carrageenan (Example 1); assay type: in vivo, rat; settings: seconds±SEM
Experimental: Intraplantar injection of carrageenan (Cg) in a rodent produces pronounced hypersensitivity to both thermal and mechanical stimuli. The effects of carrageenan are maximal 2-4 hr after administration.
as §1, §2
One treatment group (8 animals each) was injected i.p. with vehicle (5% DMSO and 5% Tween-80 in sterile saline). The other treatment groups (8 animals each) were injected i.p. with 3, 10 or 30 mg/kg Compound 2.
One hour later, withdrawal latencies for the animals administered vehicle were recorded. After assessment, all animals were administered 1% carrageenan (200 μL in sterile saline) subcutaneously into the sub-plantar tissue of the left hind paw to stimulate an acute inflammatory reaction. Three hours later, the response time of the animals to the thermal stimulus was evaluated.

CB2 receptor = molecular target: T1, CB2 receptor (Rattus norvegicus, UniProt Q9QZN9); settings: background statement; cited from earlier work
T1 sequence (Q9QZN9 1-360): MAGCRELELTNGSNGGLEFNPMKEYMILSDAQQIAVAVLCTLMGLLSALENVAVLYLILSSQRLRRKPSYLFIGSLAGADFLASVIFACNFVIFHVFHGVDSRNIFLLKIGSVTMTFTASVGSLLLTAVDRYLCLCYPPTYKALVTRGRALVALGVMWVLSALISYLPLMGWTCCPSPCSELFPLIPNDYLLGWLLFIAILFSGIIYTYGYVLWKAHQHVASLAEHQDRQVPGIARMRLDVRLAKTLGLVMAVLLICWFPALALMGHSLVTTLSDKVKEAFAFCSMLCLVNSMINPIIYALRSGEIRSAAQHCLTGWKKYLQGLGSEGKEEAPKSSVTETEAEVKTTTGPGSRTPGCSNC

Row | Compound | withdrawal latency, 3 hrs post Cg administration (male Sprague-Dawley rats [1]; 3 mg/kg i.p. 2.5 hr after 1% carrageenan) [s] | withdrawal latency, 3 hrs post Cg administration (male Sprague-Dawley rats [1]; 10 mg/kg i.p. 2.5 hr after 1% carrageenan) [s] | withdrawal latency, 3 hrs post Cg administration (male Sprague-Dawley rats [1]; 30 mg/kg i.p. 2.5 hr after 1% carrageenan) [s] | response time (withdrawal latency) to thermal stimulus, 3 hrs post Cg administration (male Sprague-Dawley rats [2]; 3 mg/kg i.p. 1 hr before 1% carrageenan) [s] | response time (withdrawal latency) to thermal stimulus, 3 hrs post Cg administration (male Sprague-Dawley rats [2]; 10 mg/kg i.p. 1 hr before 1% carrageenan) [s] | response time (withdrawal latency) to thermal stimulus, 3 hrs post Cg administration (male Sprague-Dawley rats [2]; 30 mg/kg i.p. 1 hr before 1% carrageenan) [s] | antinociception to thermal stimuli (CB2 receptor)
1 | O=C(NCC12CC3CC(CC(C3)C1)C2)c1nn(C2CCCCC2)c2c1CCCCCC2 [Compound 2, 1-cyclohexyl-4,5,6,7,8,9-hexahydro-1H-cyclooctapyrazole-3-carboxylic acid (adamantan-1-ylmethyl)-amide] | 5.92 ± 1.15 | 6.88 ± 0.44 | 8.52 ± 1.08 | 5.11 ± 0.84 | 6.18 ± 0.91 | 14.41 ± 1.75 | –
2 | CN1CCCCC1Cn1cc(C(=O)c2cc([N+](=O)[O-])ccc2I)c2ccccc21 (stereo not shown) [AM1241] | – | – | – | – | – | – | produces antinociception

From patent publication US20090215850A1, “METHOD FOR TREATING CB2 RECEPTOR MEDIATED PAIN” (priority 2008, published 2009)
